Where two headings read alike, the source gives them in different places.
Assays:
FAK = target: T1, FAK (Homo sapiens, UniProt Q05397); experiment: FAK-HiBiT Degradation Assay; assay type: cell-based; conditions: for DC50: read-out: FAK HiBiT EC50; for FAK HiBiT Ymin: lower limit of the four parameter fit (value A), Ymax derived using DMSO control, JHH-4-FAK-HiBiT cells, two hours
T1 construct: homozygous knock-in of a HiBiT tag (Promega Corporation, Madison, WI) to the C-terminus of the FAK gene in its natural genomic locus; endogenous in cells; host or cells: JHH-4-FAK-HiBiT clone d01 (CRISPR-Cas9 knock-in at the endogenous locus)
T1 sequence (Q05397 whole entry): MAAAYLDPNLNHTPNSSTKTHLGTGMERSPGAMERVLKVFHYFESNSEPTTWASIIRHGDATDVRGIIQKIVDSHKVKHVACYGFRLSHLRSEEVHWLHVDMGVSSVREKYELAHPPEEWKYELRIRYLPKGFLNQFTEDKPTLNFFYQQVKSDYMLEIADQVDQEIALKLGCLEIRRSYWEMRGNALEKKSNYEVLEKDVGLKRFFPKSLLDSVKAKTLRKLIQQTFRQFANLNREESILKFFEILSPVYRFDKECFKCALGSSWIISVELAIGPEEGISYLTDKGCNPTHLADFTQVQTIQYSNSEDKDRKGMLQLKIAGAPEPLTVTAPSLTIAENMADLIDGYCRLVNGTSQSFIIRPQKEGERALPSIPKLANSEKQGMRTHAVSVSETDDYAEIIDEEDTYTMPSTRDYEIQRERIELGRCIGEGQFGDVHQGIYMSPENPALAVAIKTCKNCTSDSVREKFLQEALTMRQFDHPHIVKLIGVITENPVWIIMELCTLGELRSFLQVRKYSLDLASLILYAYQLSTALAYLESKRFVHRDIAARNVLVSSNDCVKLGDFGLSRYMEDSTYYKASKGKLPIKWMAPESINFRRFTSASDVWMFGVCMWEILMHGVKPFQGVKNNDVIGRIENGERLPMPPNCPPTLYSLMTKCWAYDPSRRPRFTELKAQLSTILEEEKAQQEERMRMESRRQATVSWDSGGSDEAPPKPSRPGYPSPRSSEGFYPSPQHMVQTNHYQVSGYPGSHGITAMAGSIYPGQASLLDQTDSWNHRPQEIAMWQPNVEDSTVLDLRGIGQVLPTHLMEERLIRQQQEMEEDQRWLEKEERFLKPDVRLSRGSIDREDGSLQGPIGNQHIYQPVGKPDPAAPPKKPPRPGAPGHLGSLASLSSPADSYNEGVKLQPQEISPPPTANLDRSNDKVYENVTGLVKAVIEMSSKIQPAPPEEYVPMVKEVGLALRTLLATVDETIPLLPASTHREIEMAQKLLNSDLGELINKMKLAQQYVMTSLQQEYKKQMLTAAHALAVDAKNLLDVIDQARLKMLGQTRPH
Procedure, shortened: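 Degradation read out by HiBiT lytic luminescence after 2 h compound exposure (top concentration 1 μM, 3-fold, 10 points) in JHH-4 clone d01 bearing endogenous FAK-HiBiT knock-in. Four-parameter logistic fit gave EC50 and Ymin; DMSO wells defined Ymax.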

CAL-51 cells = experiment: CAL-51 Cell Proliferation Assay; assay type: cell-based; conditions: for EC50: 120 hours incubation, 10-point dose response, 4-fold dilutions starting at 10 μM, Cell-Titer-Glo, read-out: CAL-51 Prolif EC50; for CAL-51 Prolif Ymin: minimal percent of DMSO control observed in the concentrations tested (Ymin-obs), 120 hours
Text: CAL-51 cells were obtained from Bristol Myers Squibb internal cell banks (originally sourced from DSMZ-German Collection of Microorganisms and Cell Cultures GmbH, Germany) and cultured in RPMI complete media (RPMI-1640, 10% Fetal Bovine serum, 1× Antibiotic-Antimycotic, and 1× Non-Essential Amino Acids). Compounds were dispensed into 384-well plates using an acoustic dispenser (Beckman Coulter Life Sciences, Carlsbad, CA) in duplicate with 14 compounds on each plate. For each compound, a 10-point dose response was printed at 4-fold dilutions starting at 10 μM. The DMSO concentration was kept constant for a final assay concentration of 0.1% per well assuming 50 uL final media volume. Compound plates were sealed and frozen at −20° C. until use.
For each assay batch, compound plates were thawed and allowed to reach room temperature, and cells were seeded at 350 cells per well in 50 μl complete RPMI media. After 120 hours of incubation at 37° C. and 5% CO2, cells were lysed by addition of 25 μL of Cell-Titer-Glo Reagent (Promega Corporation, Madison, WI), as per manufacturer's instructions, protected from light, shaken for 20 minutes, and total luminescence read by a CLARIOstar Plus plate reader (BMG LabTech, Cary, NC). Total luminescence signal is linearly correlated with cell number remaining in the well.
Luminescence data was processed per plate by subtracting reagent-only “blank” well luminescence from all measured values and calculating a percent of DMSO control value for each treatment well. Then, to determine the half-maximal effective concentration (EC50) values for cell growth inhibition, a four parameter logistic model was fit to the data for each DMSO-normalized compound: Sigmoidal Dose-Response Model: (FIT=(A+((B−A)/1+((C/x)^D)))) where C is the inflection point (EC50), D is the Hill slope, and A and B are the low and high limits of the fit respectively. The lower limit of the fit (value A) is referred to as Ymin-calculated. The minimal percent of DMSO control that is observed in the concentrations tested for each compound is labeled as “Ymin-obs”, and was recorded and reported in the tables. Sigmoidal fit curves were processed and evaluated using Dotmatics Atlas (Insightful Science, LLC, Boston, MA).

[1] = JHH-4-FAK-HiBiT clone d01 cells, two hours incubation, 10-point dose response, 3-fold dilution starting at 1 μM, Nano-Glo HiBiT luminescence

Compound	DC50 (FAK; [1])	FAK HiBiT Ymin (FAK)	EC50 (CAL-51 cells; Homo sapiens)	CAL-51 Prolif Ymin (CAL-51 cells)	EC50 (FAK; [1])	EC50 (CAL-51 cells)
CCOc1cnc(-c2c(Cl)c(N3CC(F)C3)nc3c2cnn3Cc2ccc3c(c2)CN([C@H]2CCC(=O)NC2=O)C3=O)c(C(F)(F)F)c1 [Example 4, (3S)-3-[5-({5-chloro-4-[5-ethoxy-3-(trifluoromethyl)pyridin-2-yl]-6-(3-fluoroazetidin-1-yl)-1H-pyrazolo[3,4-b]pyridin-1-yl}methyl)-1-oxo-2,3-dihydro-1H-isoindol-2-yl]piperidine-2,6-dione]	0.42 nM	7.37	0.52 nM	1.90	–	–
CN(C)c1cc(-c2ncc(C(F)(F)F)cc2Cl)c2cnn(Cc3ccc4c(c3)CN(C3CCC(=O)NC3=O)C4=O)c2n1 (stereo not drawn) [Example 5, 3-[5-({4-[3-chloro-5-(trifluoromethyl)pyridin-2-yl]-6-(dimethylamino)-1H-pyrazolo[3,4-b]pyridin-1-yl}methyl)-1-oxo-2,3-dihydro-1H-isoindol-2-yl]piperidine-2,6-dione]	0.42 nM	6.93	0.36 nM	29.57	–	–
O=C1CC[C@H](N2Cc3cc(Cn4ncc5c(-c6ncc(C(F)(F)F)cc6Cl)cc(N6CC(F)C6)nc54)ccc3C2=O)C(=O)N1 [Example 6, (3S)-3-[5-({4-[3-chloro-5-(trifluoromethyl)pyridin-2-yl]-6-(3-fluoroazetidin-1-yl)-1H-pyrazolo[3,4-b]pyridin-1-yl}methyl)-1-oxo-2,3-dihydro-1H-isoindol-2-yl]piperidine-2,6-dione]	0.5 nM	8.05	0.4 nM	31.07	–	–
O=C1CC[C@H](N2Cc3cc(Cn4ncc5c(-c6ncc(OC(F)(F)F)cc6Cl)cc(N6CC(F)C6)nc54)ccc3C2=O)C(=O)N1 [Example 7, (S)-3-(5-((4-(3-chloro-5-(trifluoromethoxy)pyridin-2-yl)-6-(3-fluoroazetidin-1-yl)-1H-pyrazolo[3,4-b]pyridin-1-yl)methyl)-1-oxoisoindolin-2-yl)piperidine-2,6-dione]	0.57 nM	8.83	0.36 nM	21.87	–	–
O=C1CCC(N2Cc3cc(Cn4ncc5c(-c6ncc(Cl)cc6Cl)c(F)c(N6CC(F)C6)nc54)ccc3C2=O)C(=O)N1 (stereo not drawn) [Example 8, 3-(5-{[4-(3,5-dichloropyridin-2-yl)-5-fluoro-6-(3-fluoroazetidin-1-yl)-1H-pyrazolo[3,4-b]pyridin-1-yl]methyl}-1-oxo-2,3-dihydro-1H-isoindol-2-yl)piperidine-2,6-dione]	0.55 nM	9.05	0.85 nM	17.44	–	–
N#Cc1ccc(-c2c(Cl)c(N3CC(F)C3)nc3c2cnn3Cc2ccc3c(c2)CN(C2CCC(=O)NC2=O)C3=O)c(F)c1 (stereo not drawn) [Example 10, 4-(5-chloro-1-{[2-(2,6-dioxopiperidin-3-yl)-1-oxo-2,3-dihydro-1H-isoindol-5-yl]methyl}-6-(3-fluoroazetidin-1-yl)-1H-pyrazolo[3,4-b]pyridin-4-yl)-3-fluorobenzonitrile]	0.56 nM	6.93	75.4 nM	33.21	–	–
O=C1CCC(N2Cc3cc(Cn4ncc5c(-c6ncc(C(F)(F)F)cc6Cl)cc(N6CCCC6)nc54)ccc3C2=O)C(=O)N1 (stereo not drawn) [Example 11, 3-[5-({4-[3-chloro-5-(trifluoromethyl)pyridin-2-yl]-6-(pyrrolidin-1-yl)-1H-pyrazolo[3,4-b]pyridin-1-yl}methyl)-1-oxo-2,3-dihydro-1H-isoindol-2-yl]piperidine-2,6-dione]	0.64 nM	6.28	0.34 nM	22.89	–	–
CN(C)c1cc(-c2ccc(C#N)cc2Cl)c2cnn(Cc3ccc4c(c3)CN(C3CCC(=O)NC3=O)C4=O)c2n1 (stereo not drawn) [Example 12, 3-chloro-4-[6-(dimethylamino)-1-{[2-(2,6-dioxopiperidin-3-yl)-1-oxo-2,3-dihydro-1H-isoindol-5-yl]methyl}-1H-pyrazolo[3,4-b]pyridin-4-yl]benzonitrile]	0.67 nM	7.50	0.99 nM	23.97	–	–
CN(C)c1cc(-c2ncc(C#N)cc2Cl)c2c(n1)N(Cc1ccc3c(c1)CN(C1CCC(=O)NC1=O)C3=O)CC2 (stereo not drawn) [Example 14, 5-chloro-6-(6-(dimethylamino)-1-((2-(2,6-dioxopiperidin-3-yl)-1-oxoisoindolin-5-yl)methyl)-2,3-dihydro-1H-pyrrolo[2,3-b]pyridin-4-yl)nicotinonitrile]	–	7.20	–	23.56	14.6 nM	5.06 nM
O=C1CCC(N2Cc3cc(Cn4ccc5c(-c6ncc(C(F)(F)F)cc6Cl)cc(N6CC(F)C6)nc54)ccc3C2=O)C(=O)N1 (stereo not drawn) [Example 15, 3-(5-((4-(3-chloro-5-(trifluoromethyl)pyridin-2-yl)-6-(3-fluoroazetidin-1-yl)-1H-pyrrolo[2,3-b]pyridin-1-yl)methyl)-1-oxoisoindolin-2-yl)piperidine-2,6-dione]	0.95 nM	7.50	0.89 nM	29.00	–	–
CCc1cc2c(-c3ncc(C(F)(F)F)cc3Cl)cc(N3CC(F)C3)nc2n1Cc1ccc2c(c1)CN(C1CCC(=O)NC1=O)C2=O (stereo not drawn) [Example 16, 3-(5-((4-(3-chloro-5-(trifluoromethyl)pyridin-2-yl)-2-ethyl-6-(3-fluoroazetidin-1-yl)-1H-pyrrolo[2,3-b]pyridin-1-yl)methyl)-1-oxoisoindolin-2-yl)piperidine-2,6-dione]	≥ 1000 nM	96.37	298 nM	81.53	–	–
O=C1CCC(N2Cc3cc(Cn4ccc5c(-c6ncc(F)cc6Cl)cc(N6CC(F)C6)nc54)ccc3C2=O)C(=O)N1 (stereo not drawn) [Example 17, 3-(5-((4-(3-chloro-5-fluoropyridin-2-yl)-6-(3-fluoroazetidin-1-yl)-1H-pyrrolo[2,3-b]pyridin-1-yl)methyl)-1-oxoisoindolin-2-yl)piperidine-2,6-dione]	3.36 nM	7.42	3.46 nM	28.46	–	–
O=C1CCC(N2Cc3cc(Cn4cnc5c(-c6ccc(C(F)(F)F)cc6Cl)cc(N6CC(F)C6)nc54)ccc3C2=O)C(=O)N1 (stereo not drawn) [Example 19, 3-(5-((7-(2-chloro-4-(trifluoromethyl)phenyl)-5-(3-fluoroazetidin-1-yl)-3H-imidazo[4,5-b]pyridin-3-yl)methyl)-1-oxoisoindolin-2-yl)piperidine-2,6-dione]	0.86 nM	8.55	0.38 nM	23.48	–	–
Cc1nc2c(-c3ccc(C(F)(F)F)cc3Cl)cc(N3CC(F)C3)nc2n1Cc1ccc2c(c1)CN(C1CCC(=O)NC1=O)C2=O (stereo not drawn) [Example 20, 3-(5-((7-(2-chloro-4-(trifluoromethyl)phenyl)-5-(3-fluoroazetidin-1-yl)-2-methyl-3H-imidazo[4,5-b]pyridin-3-yl)methyl)-1-oxoisoindolin-2-yl)piperidine-2,6-dione]	0.89 nM	7.90	0.37 nM	24.38	–	–
Cc1nc2c(-c3ncc(C(F)(F)F)cc3Cl)cc(N3CC(F)C3)nc2n1Cc1ccc2c(c1)CN(C1CCC(=O)NC1=O)C2=O (stereo not drawn) [Example 21, 3-(5-((7-(3-chloro-5-(trifluoromethyl)pyridin-2-yl)-5-(3-fluoroazetidin-1-yl)-2-methyl-3H-imidazo[4,5-b]pyridin-3-yl)methyl)-1-oxoisoindolin-2-yl)piperidine-2,6-dione]	1.54 nM	9.84	0.91 nM	23.08	–	–

Reference: patent publication US20260078119A1, “DEGRADER COMPOUNDS AND USES THEREOF” (Bristol-Myers Squibb Company, priority 2024, published 2026)
